# According to doi:10.1101/2020.10.02.321802v3 (bioRxiv, 2020):
# pIC50: −log10 of the molar value. Bridge positions count the residues as written; N and C are the ends. Square brackets hold non-standard residues; d marks the D form. Peptide text beside a SMILES is read from it. * marks the point of attachment. X1 = CC[C@H](C)CCCCC(=O)*; Dab = NCC[C@H](N)C(=O)O
# Tests used:
# E. coli MG1655 [1] = test: MIC and IC50 measurement; assay type: cell-based, Escherichia coli; settings: for IC50 / MIC / pIC50: OD590 after 16 hours
# E. coli ATCC 25922 = test: MIC and IC50 measurement; assay type: cell-based, Escherichia coli; settings: for IC50 / MIC / pIC50: OD590 after 16 hours
# P. aeruginosa PA14 = test: MIC and IC50 measurement; assay type: cell-based, Pseudomonas aeruginosa; settings: for IC50 / MIC / pIC50: OD590 after 16 hours
# E. coli MG1655 [2] = test: Growth curves with single AMPs and combinations of AMPs; assay type: cell-based, Escherichia coli; settings: single compound at the "full" concentration, 6 hours
# [3] = tested on: wild-type strain (Keio deletion library); test: MIC and IC50 on Keio collection strains; assay type: cell-based, Escherichia coli
# [4] = tested on: ΔrfaY deletion mutant (Keio deletion library); test: MIC and IC50 on Keio collection strains; assay type: cell-based, Escherichia coli
# [5] = tested on: ΔlpxL deletion mutant (Keio deletion library); test: MIC and IC50 on Keio collection strains; assay type: cell-based, Escherichia coli
# S. aureus ATCC 29213 = test: Selection of resistant mutants by serial passage, MIC per passage; assay type: cell-based, Staphylococcus aureus
# [6] = ref Michod et al., 2009; cited from earlier work
# [7] = BM2 Mg^high (BM2 with 2 mM MgSO4)
# [8] = BM2 Mg^low (BM2 with 20 μM MgSO4)
# [9] = LB Mg^high (LB with 2 mM MgSO4)
# [10] = LB containing EDTA at concentrations that do not affect bacterial proliferation
Compound,IC50 (E. coli MG1655 [1]; [7]) [µg/mL],MIC (E. coli MG1655 [1]; [7]),IC50 (E. coli MG1655 [1]; [8]) [µg/mL],MIC (E. coli MG1655 [1]; [8]),MIC (E. coli MG1655 [1]; [9]),MIC (E. coli MG1655 [1]; LB),"IC50 (E. coli MG1655 [1]; LB, GraphPad Prism 8) [µg/mL]",IC50 (E. coli ATCC 25922; [9]) [µg/mL],MIC (E. coli ATCC 25922; [9]),IC50 (E. coli ATCC 25922; LB) [µg/mL],MIC (E. coli ATCC 25922; LB),IC50 (P. aeruginosa PA14; [7]) [µg/mL],MIC (P. aeruginosa PA14; [7]),MIC (P. aeruginosa PA14; [8]),MIC (P. aeruginosa PA14; [9]),IC50 (P. aeruginosa PA14; LB) [µg/mL],MIC (P. aeruginosa PA14; LB),growth inhibition (E. coli MG1655 [2]),pIC50 (E. coli MG1655 [1]; [7]),pIC50 (E. coli MG1655 [1]; [8]),"pIC50 (E. coli MG1655 [1]; LB, GraphPad Prism 8)",pIC50 (E. coli ATCC 25922; [9]),pIC50 (E. coli ATCC 25922; LB),pIC50 (P. aeruginosa PA14; [7]),pIC50 (P. aeruginosa PA14; LB),other results
"CC[C@H](C)CCCCC(=O)N[C@@H](CCN)C(=O)N[C@H](C(=O)N[C@@H](CCN)C(=O)N[C@H]1CCNC(=O)[C@H]([C@@H](C)O)NC(=O)[C@H](CCN)NC(=O)[C@H](CCN)NC(=O)[C@H](CC(C)C)NC(=O)[C@@H](Cc2ccccc2)NC(=O)[C@H](CCN)NC1=O)[C@@H](C)O [Polymyxin B, polymyxin B] (X1-[Dab]T[Dab][Dab][Dab][dF]L[Dab][Dab]T; lactam 4-C (inferred); N-terminus assumed)",0.8,2 µg/mL,1.0,2 µg/mL,2 µg/mL,1 µg/mL,0.6,2.7,4 µg/mL,1.8,2 µg/mL,0.5,1 µg/mL,4 µg/mL,2 µg/mL,2.1,4 µg/mL,~ 35%,,,,,,,,"impact of low magnesium in BM2 medium on MIC (E. coli MG1655 [1]; BM2 Mg^low vs BM2 Mg^high): no impact; effect of EDTA on MIC (E. coli MG1655 [1]; [10]): less affected; effect of soluble LPS on efficacy (MIC) (E. coli MG1655 [1]; LB containing purified E. coli LPS, averages of two independent experiments): greatly diminishes the efficacy; effect of EDTA on MIC (E. coli ATCC 25922; [10]): less affected; increase of MIC by low magnesium in BM2 medium (P. aeruginosa PA14; BM2 Mg^low vs BM2 Mg^high): 4 fold"
CSCC[C@@H](NC(=O)[C@@H](Cc1c[nH]c2ccccc12)NC(=O)[C@H](NC(=O)[C@H](NC(=O)[C@@H](CC(N)=O)NC(=O)[C@@H](CC(C)C)NC(=O)[C@@H](CCCNC(=N)N)NC(=O)[C@H](NC(=O)[C@H](N)CC(=O)O)[C@H](C)O)[C@H](C)O)C(C)C)C(=O)N[C@H](Cc1c[nH]c2ccccc12)C(=O)NCC(=O)NCC(=O)N[C@H](CCCNC(=N)N)C(=O)N[C@H](CCCNC(=N)N)C(=O)N[C@H](CCCNC(=N)N)C(=O)N[C@H](CCC(N)=O)C(=O)N[C@H](CCCNC(=N)N)C(=O)N[C@H](CCCNC(=N)N)C(=O)N[C@H](CCCCN)C(=O)N[C@H](CCCCN)C(=O)N[C@H](CCCNC(=N)N)C(=O)NCC(=O)O [TAT-RasGAP317-326] (H-[dD][dT][dR][dL][dN][dT][dV][dW][dM][dW]GG[dR][dR][dR][dQ][dR][dR][dK][dK][dR]G-OH),,4 µM,,0.5 µM,32 µM,8 µM,,,128 µM,,8 µM,,32 µM,4 µM,64 µM,,32 µM,,5.70,6.52,5.52,4.28,5.28,5.00,5.14,"pIC50 (E. coli MG1655 [1]; [9]): 4.79; pIC50 (P. aeruginosa PA14; [8]): 5.77; pIC50 (P. aeruginosa PA14; [9]): 4.68; pIC50 ([3]; Strain 1): 5.39; MIC ([3]; Strain 1): 7.5 µM; pIC50 ([3]; Strain 2): 5.32; MIC ([3]; Strain 2): 7.5 µM; pIC50 ([4]; Strain 1): 5.15; MIC ([4]; Strain 1): 10 µM; pIC50 ([4]; Strain 2): 5.11; MIC ([4]; Strain 2): 10 µM; pIC50 ([5]; Strain 1): 5.70; MIC ([5]; Strain 1): 2.5 µM; pIC50 ([5]; Strain 2): 5.66; MIC ([5]; Strain 2): 2.5 µM; MIC after selection (S. aureus ATCC 29213; S. aureus passaged in presence of peptide, rapidly increased): 256 µM; MIC of the parental strain (S. aureus ATCC 29213; parental strain of S. aureus): 64 to 128 µM; biodistribution and clearance [6]: poor biodistribution and rapid clearance"
melittin,,,,,,,,,,,,,,,,,,~ 20%,,,,,,,,
